Like-named read-outs stand apart in the source and are kept apart here.
Tests used:
[1] = system: H2030; assay: CellTiterGlo Cell Proliferation Assay, H2030; format: cell-based; conditions: Homo sapiens, NCI-H2030, KRas G12C, Lung, 96 hr
Method: (§1) A panel of tumor cell lines harboring KRas G12C or other KRas mutations are collected (Table 6). All cell lines are from ATCC or other sources indicated.
(§2) Typically cells are cultured in RPMI1640 or Dulbecco's modified Eagle's medium (DMEM, GIBCO) supplemented with 10% FBS (GIBCO, Invitrogen). For 2D culture cells (4×10^3/well) maintained in growth medium described above, are plated onto 96 well tissue culture plates Corning® Cat. 3603) a day before the treatment. For 3D culture 8000 cells/well are seeded onto 96 well ultra-low attachment tissue culture plates (Corning, #3474). The cells are treated compound for 96 hr, and then are analyzed for viability using the CellTiterGlo® Luminescent Cell Viability Assay® (Promega #G7572 for 2D and Promega #G9683 for 3D cultures) according to manufacturer's instructions and an EnVision™ plate reader. Nonlinear regression and sigmoidal dose-response curves are used to calculate the half maximal inhibitory concentration (IC50) with GraphPad Prism 4® software.

[2] = system: SW837; assay: CellTiterGlo Cell Proliferation Assay, SW837; format: cell-based; conditions: Homo sapiens, KRas G12C, Rectum, 96 hr
Method: as §1, §2

[3] = system: Calu-6; assay: CellTiterGlo Cell Proliferation Assay, Calu-6; format: cell-based; conditions: Homo sapiens, KRas Q61K, lung, 96 hr
Method: as §1, §2

[4] = system: pMEK in H2122 xenograft tumors; assay: In vivo target inhibition/PD, H2122 xenograft, pMEK; conditions: Mus musculus, NCI-H2122; for inhibition at 10 mg/kg: 10 mg/kg single dose
Method: To evaluate in vivo target inhibition and anti-tumor efficacy of a compound, Human lung cancer cells, H358 or H2122 are implanted into nude mice xenograft tumor models. Either H358 or H2122 cells (10×10^6 in a 1:1 Matrigel® mix, 0.2 mL total volume) are implanted by subcutaneous injection in hind leg of nude female mice (Harlan Laboratories). A total of 5 mice each group are used for efficacy study, and a total of 3-4 mice each group are used for target engagement and PD study. Treatment is initiated with oral administration (gavage) of a test compound or vehicle (20% Captisol®, 25 mM phosphate, pH 2.0 in 0.2 mL volume when the tumor size reaches approximately […]. Tumor growth and body weight are monitored over time to evaluate efficacy and signs of toxicity. Bidimensional measurements of tumors are performed twice a week and tumor volumes are calculated based on mid-axis length and mid-axis width. Tumor volume data are transformed to a log scale to equalize variance across time and treatment groups. The log volume data are analyzed with a two-way repeated measures analysis of variance by time and treatment using the mixed procedures in SAS software (version 8.2). The correlation model for the repeated measures is spatial power. Treated groups are compared to the control group at each time point. The mixed procedure is also used separately for each treatment group to calculate adjusted means and standard errors at each time point. Both analyses account for the autocorrelation within each animal. The adjusted means and standard errors are plotted for each treatment group versus time.
For in vivo target inhibition and PD analysis, tumors are ground by mortar and pestle on dry ice and tumor fragments are added to 800 μL of lysis buffer containing 1% Triton X100, 25 mM Tris pH 7.5, 150 mM NaCl, 1 mM EDTA, and 1 mM EGTA with Halt protease and phosphatase inhibitor cocktail (Thermo Scientific, cat. no. 1861281) in lysing matrix D tubes (MP Biomedical®, cat. no. 6913-500) with one additional large bead (MP Biomedical® ¼″ ceramic sphere bead cat. no. 6540-412) per tube. Tumor fragments are homogenized in a Thermo Bio101® fast prep (FP120) at setting 4 for […] while cold for a total of 2 times. Lysates are spun at 14,000 rpm for 10 min at 4° C. to clarify. Protein estimation is done on the lysate supernatant using a BioRad Dc® protein assay and lysates are diluted in complete lysis/binding buffer from the Ras GTPase Chemi ELISA Kit® (Active Motif, cat. no. 52097). The active KRas ELISA was performed as follows: Glutathione-coated ELISA wells were incubated with diluted RAF1-GST in complete lysis/binding buffer for 1 hr at 4° C. with gentle agitation. Wells are washed 3 times with wash buffer and 100 μg of lysates are added to each well and incubated at RT for 1 hr with mild agitation. The wells are washed an additional 3 times, then primary antibody, diluted in antibody binding buffer, is added to each well. The plates are incubated for 1 hr. The wells are washed 3 more times before adding HRP-conjugated secondary antibody, diluted in antibody binding buffer, to each well. The plates are incubated at RT for 1 hr. ELISA wells are washed 4 times, chemiluminescent reagents is added and then luminescence is read. For pERK Meso Scale Discovery ELISA, 25 μg of protein containing 0.1% SDS is used; for pMEK Meso Scale Discovery ELISA, 50 μg of protein without SDS is used. Meso Scale Discovery Whole Cell Lysate Kits for pERK and pMEK are provided by Meso Scale Discovery.
After a single dose, the tumor samples are harvested at different time points. The tumor lysates are prepared as described above. The inhibition of pERK, pMEK, and active KRas is measured as described above.

[5] = system: EL2661 (PDX); assay: Anti-tumor growth activity, EL2661 lung PDX; format: in vivo; conditions: 28 Day, negative = regression
[6] = read-out: IC50 (μM) in 2 D cell proliferation
[7] = read-out: IC50 (μM) in 3 D spheroid cell proliferation

SMILES: C=CC(=O)N1CCN(c2ncnc3c(F)c(-c4ccc(F)c5sc(N)nc45)c(Cl)cc23)CC1 [Example 1, 1-{4-[7-(2-Amino-7-fluoro-1,3-benzothiazol-4-yl)-6-chloro-8-fluoroquinazolin-4-yl]piperazin-1-yl}prop-2-en-1-one]
- IC50 [1, 6]: 6.88 µM
- IC50 [1, 7]: 0.003 µM
- IC50 [2, 6]: 0.169 µM
- IC50 [2, 7]: 0.126 µM
- IC50 [3, 6]: 12.1 µM
- IC50 [3, 7]: 19.5 µM
- inhibition at 10 mg/kg ([4]; H2122 xenograft, 2 hr, read-out: % Inhibition pMEK): 45.9%
- inhibition at 10 mg/kg ([4]; H2122 xenograft, 4 hr, read-out: % Inhibition pMEK): 60.4%
- inhibition at 10 mg/kg ([4]; H2122 xenograft, 8 hr, read-out: % Inhibition pMEK): 25.7%
- inhibition at 10 mg/kg ([4]; H2122 xenograft, 12 hr, read-out: % Inhibition pMEK): -0.4%
- inhibition at 10 mg/kg ([4]; H2122 xenograft, 24 hr, read-out: % Inhibition pMEK): -8.4%
- inhibition at 10 mg/kg ([4]; H2122 xenograft, from 2-12 hr, read-out: pMEK inhibition): 0 to 60%
- inhibition at 30 mg/kg ([4]; H2122 xenograft, 30 mg/kg single dose, 2 hr, read-out: % Inhibition pMEK): 62.4%
- inhibition at 30 mg/kg ([4]; H2122 xenograft, 30 mg/kg single dose, 4 hr, read-out: % Inhibition pMEK): 77.5%
- inhibition at 30 mg/kg ([4]; H2122 xenograft, 30 mg/kg single dose, 8 hr, read-out: % Inhibition pMEK): 72.2%
- inhibition at 30 mg/kg ([4]; H2122 xenograft, 30 mg/kg single dose, 12 hr, read-out: % Inhibition pMEK): 44.7%
- inhibition at 30 mg/kg ([4]; H2122 xenograft, 30 mg/kg single dose, 24 hr, read-out: % Inhibition pMEK): -15.5%
- inhibition at 100 mg/kg ([4]; H2122 xenograft, 100 mg/kg single dose, 4 hr): 79.7%
- inhibition at 30 mg/kg ([4]; read-out: pMEK inhibition): 45 to 78%
- Tumor Growth Inhibition (%) or Regression (−%) ([5]; 10 mg/kg QD): 46.5%
- Tumor Growth Inhibition (%) or Regression (−%) ([5]; 20 mg/kg QD): 58.6%
- Tumor Growth Inhibition (%) or Regression (−%) ([5]; 30 mg/kg QD): 97.6%
- Tumor Growth Inhibition (%) or Regression (−%) ([5]; 50 mg/kg QD): −8.6%

From patent US10968214B2, “KRas G12C inhibitors” (Eli Lilly and Company, priority 2018, dated 2021)
